Experimental data from PubChem BioAssay AID248 (DTP/NCI, 2004).
“And” between values parts separate entries of the source, which are not always exact repeats. Equal values may be shown once. Toxic doses and inconclusive results are not listed.

System: L1210 leukemia ip in BDF1 mice, survival T/C
Experiment: NCI In Vivo Anticancer Drug Screen. Data for tumor model L1210 Leukemia (intraperitoneal) in B6D2F1 (BDF1) mice
Conditions: endpoint: mean survival time, higher = longer survival
Summary of the method: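 Transplantable tumor model; survival measured in treated vs vehicle control mice. Value = treated/control.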

[1] = dose: 100.0 mg/kg/injection, schedule: Q04DX002 (ip), vehicle: Klucel (hydroxypropylcellulose) (HPC)
[2] = dose: 200.0 mg/kg/injection, schedule: Q04DX002 (ip), vehicle: Klucel (hydroxypropylcellulose) (HPC)
[3] = dose: 400.0 mg/kg/injection, schedule: Q04DX002 (ip), vehicle: Klucel (hydroxypropylcellulose) (HPC)
[4] = dose: 100.0 mg/kg/injection, schedule: Q01DX009 (ip), vehicle: Klucel (hydroxypropylcellulose) (HPC)
[5] = dose: 100.0 mg/kg/injection, schedule: Q01DX001 (ip), vehicle: saline

CCOC(=O)c1c(-c2ccc([N+](=O)[O-])cc2)cn(-c2ccccc2)c1C
T/C [1]: 91 % of control | T/C [2]: 97 % of control | T/C [3]: 87 % of control

CC(=O)N(C)c1cc2c3c(c1)CCCN3CCC2
T/C (dose: 50.0 mg/kg/injection, schedule: Q01DX009 (ip), vehicle: Klucel (hydroxypropylcellulose) (HPC)): 104 % of control | T/C [4]: 98 % of control

CC[n+]1c(COCCOc2ccccc2)sc2cc3c(cc21)OCO3
T/C [5]: 101 % of control

O=P(Oc1ccccc1)(N1CCCC1)N1CCCC1
T/C (dose: 50.0 mg/kg/injection, schedule: Q01DX009 (ip), vehicle: saline): 100 % of control | T/C (dose: 100.0 mg/kg/injection, schedule: Q01DX009 (ip), vehicle: saline): 91 % of control | T/C (dose: 100.0 mg/kg/injection, schedule: Q04DX002 (ip), vehicle: saline): 100 % of control | T/C (dose: 200.0 mg/kg/injection, schedule: Q01DX009 (ip), vehicle: saline): 98 % of control | T/C (dose: 200.0 mg/kg/injection, schedule: Q04DX002 (ip), vehicle: saline): 95 % of control

CN(C)C(N)=O
T/C (dose: 75.0 mg/kg/injection, schedule: Q01DX009 (ip), vehicle: saline): 102 % of control | T/C (dose: 150.0 mg/kg/injection, schedule: Q01DX009 (ip), vehicle: saline): 98 % of control | T/C (dose: 300.0 mg/kg/injection, schedule: Q01DX009 (ip), vehicle: saline): 100 % of control

O=[N+]([O-])c1cc(Cl)c(Cl)cc1NCCCO
T/C [5]: 95 % of control | T/C (dose: 100.0 mg/kg/injection, schedule: Q01DX009 (ip), vehicle: acetone): 95 % of control | T/C (dose: 100.0 mg/kg/injection, schedule: Q04DX003 (ip), vehicle: saline): 91 % of control | T/C (dose: 200.0 mg/kg/injection, schedule: Q01DX001 (ip), vehicle: saline): 96 % of control | T/C (dose: 200.0 mg/kg/injection, schedule: Q01DX009 (ip), vehicle: acetone): 97 % of control | T/C (dose: 200.0 mg/kg/injection, schedule: Q04DX003 (ip), vehicle: saline): 96 % of control | T/C (dose: 400.0 mg/kg/injection, schedule: Q01DX001 (ip), vehicle: saline): 92 % of control | T/C (dose: 400.0 mg/kg/injection, schedule: Q04DX003 (ip), vehicle: saline): 89 % of control

NC(CSS(=O)(=O)O)=NCc1cccnc1
T/C [1]: 89 % of control | T/C [2]: 105 % of control

O=C(CCCCCCCCC(=O)Nc1cccc(C2=NCCN2)c1)Nc1cccc(C2=NCCN2)c1
T/C (dose: 2.5 mg/kg/injection, schedule: Q01DX Z (ip), vehicle: saline): 95 % of control | T/C (dose: 5.0 mg/kg/injection, schedule: Q01DX Z (ip), vehicle: saline): 91 % of control | T/C (dose: 10.0 mg/kg/injection, schedule: Q01DX Z (ip), vehicle: saline): 91 % of control

c1ccc(COc2ccc(Nc3ccccc3)cc2)cc1
T/C [4]: 98 % of control | T/C (dose: 100.0 mg/kg/injection, schedule: Q04DX003 (ip), vehicle: Klucel (hydroxypropylcellulose) (HPC)): 106 % of control | T/C (dose: 200.0 mg/kg/injection, schedule: Q01DX009 (ip), vehicle: Klucel (hydroxypropylcellulose) (HPC)): 100 % of control | T/C (dose: 200.0 mg/kg/injection, schedule: Q04DX003 (ip), vehicle: Klucel (hydroxypropylcellulose) (HPC)): 103 % of control | T/C (dose: 400.0 mg/kg/injection, schedule: Q01DX009 (ip), vehicle: Klucel (hydroxypropylcellulose) (HPC)): 102 % of control | T/C (dose: 400.0 mg/kg/injection, schedule: Q04DX003 (ip), vehicle: Klucel (hydroxypropylcellulose) (HPC)): 94 % of control

CCCCCCCOC(=O)COc1ccc(Cl)cc1Cl
T/C [1]: 90 % of control | T/C [2]: 87 % of control | T/C [3]: 97 % of control

CCOC(=O)C(Cc1ccc(N(CCCl)CCCl)cc1)NC=O (stereo not drawn)
T/C (dose: 5.0 mg/kg/injection, schedule: Q01DX Z (ip), vehicle: carboxymethylcellulose (CMC)): 111 % of control | T/C (dose: 10.0 mg/kg/injection, schedule: Q01DX Z (ip), vehicle: carboxymethylcellulose (CMC)): 123 % of control | T/C (dose: 40.0 mg/kg/injection, schedule: Q01DX Z (ip), vehicle: carboxymethylcellulose (CMC)): 150 % of control | T/C (dose: 88.8 mg/kg/injection, schedule: Q01DX001 (ip), vehicle: carboxymethylcellulose (CMC)): 168 % of control | T/C (dose: 133.0 mg/kg/injection, schedule: Q01DX001 (ip), vehicle: carboxymethylcellulose (CMC)): 168 % of control | T/C (dose: 200.0 mg/kg/injection, schedule: Q01DX001 (ip), vehicle: carboxymethylcellulose (CMC)): 150 % of control and 161 % of control and 170 % of control

CCCNC(=O)Nc1cccc(C(F)(F)F)c1
T/C (dose: 100.0 mg/kg/injection, schedule: Q01DX009 (ip), vehicle: saline with Tween-80): 100 % of control | T/C (dose: 100.0 mg/kg/injection, schedule: Q04DX003 (ip), vehicle: saline with Tween-80): 100 % of control | T/C (dose: 200.0 mg/kg/injection, schedule: Q01DX009 (ip), vehicle: saline with Tween-80): 97 % of control | T/C (dose: 200.0 mg/kg/injection, schedule: Q04DX003 (ip), vehicle: saline with Tween-80): 97 % of control | T/C (dose: 400.0 mg/kg/injection, schedule: Q01DX009 (ip), vehicle: saline with Tween-80): 88 % of control | T/C (dose: 400.0 mg/kg/injection, schedule: Q04DX003 (ip), vehicle: saline with Tween-80): 106 % of control
